Data taken from US8535740B2, “Compositions from Nigella sativa” (priority 2002, dated 2013).

System: 3T3-L1 adipocytes
Assay: Lipolysis (glycerol / free fatty acid release) in 3T3-L1 adipocytes
Type: cell-based, murine
Conditions: forskolin 82 μg/mL, test materials 5 μg/mL (FIG. 9)
Procedure: Cell culture and treatment-Culture and treatment of 3T3-L1 adipocytes and C2C12 myocytes was as described in Example 5. Concentrations of the forskolin positive control and test materials are listed in FIG. 9 for adipocytes and FIG. 10 for myocytes. Glycerol assay-Free fatty acid release from 3T3-L1 adipocytes or C2C12 myocytes was quantified by measuring glycerol secretion into the medium. Glycerol was measured spectrophotometrically using the Free Glycerol Determination Kit ([…], Sigma) and an EL 312e Microplate BIO-KINETICS spectrophotometer (BioTek, Winooski, Vt.). Data analysis-Glycerol release from adipocytes and myocytes was expressed, respectively, as the percent increase in free fatty acid secretion (FIG. 9) and relative glycerol content (glycerol index FIG. 10) ±95% confidence intervals of eight observations for one of three representative experiments.

SMILES: CC1=CC(=O)C(C(C)C)=CC1=O [Thymoquinone (Sigma), thymoquinone]
- free fatty acid release in adipocytes: induced free fatty acid release
